# Test results as given in patent US20080039500A1, “Cerebral Infarction Suppressant” (priority 2004, published 2008).
# Experiments:
# [1] = tested on: cerebral infarction; test: Example 1: concomitant use of histidine and H3-receptor blocker, size of infarction after 2 h middle cerebral artery occlusion (TTC staining); format: in vivo, rat
# Excerpt: These rats were anesthetized with a gas mixture of 2% halothane, 49% oxygen and 49% laughing gas, and kept under spontaneous breathing. Subsequently, a median incision was made in the neck of the rat placed on its back, and the right common carotid artery was exposed. […] The tip of the nylon thread was placed 18 mm from the bifurcation. After suture of the incision of the skin, the rats were allowed to recover from anesthesia. During surgery, an electronic thermometer was inserted into the temporal muscle, and the body temperature was maintained at 37.0±0.1° C. with a lamp. […] Five minutes before reperfusion of blood flow, the rats were anesthetized again. […] Histidine was first dissolved in physiological saline adjusted to pH 4.0 with hydrochloric acid, and then the pH was resumed to 6.0 with sodium hydroxide. Further, 5 mg/kg of thioperamide was intraperitoneally injected to each thioperamide administration group. After recovery from anesthesia, the rats were allowed to access food and water freely. Twenty-four hours after recovery of blood flow, sodium pentobarbital was intraperitoneally administered to the rats for anesthesia. Subsequently, the brain was perfused with physiological saline, and the rat was decapitated. The brain was quickly dissected, and rinsed in physiological saline. The brain was sliced coronally between the optic chiasm and the caucal edge of the mammillary body at a thickness of 2 mm. […] As a result, triphenyltetrazolium chloride was reduced due to the action of dehydrogenase present in viable cells, and the tissue was stained in dark red. On the other hand, the dead tissue in the infarcted area was not stained. These brain slices were preserved in phosphate-buffered formalin overnight. Then, an investigator who was unaware of histidine administration measured the size of infarction using computer-aided planimetry.
# [2] = tested on: neuronal death; conditions: cited from earlier work
# [3] = tested on: cerebral infarction; test: Example 2: concomitant use of histidine and HMT inhibitor, size of infarction after middle cerebral artery occlusion
# Experimental: Twenty-five male Wistar rats weighing about 300 g were divided into 4 groups consisting of histidine 1000 mg/kg administration group, histidine 200 mg/kg+metoprine 10 mg/kg administration group, histidine 500 mg/kg+metoprine 10 mg/kg administration group, and histidine 1000 mg/kg+metoprine 10 mg/kg administration group.
# The root of the right middle cerebral artery of these rats was occluded and blood flow was recovered as shown in the Example 1. Then, 200 mg/kg, 500 mg/kg or 1000 mg/kg of histidine was intraperitoneally administered to the rats, and 10 mg/kg of metoprine was further administered to the metoprine administration groups, as shown in the Example 1.
# The samples were prepared by treating each rat as shown in the Example 1 and the size of infarction was measured. The obtained size of cerebral infarction was subjected to analysis of variance and the Bonferroni test.
# [4] = tested on: pyramidal neurons in the hippocampal CA-1 region; conditions: administration prior to transient forebrain ischemia, rat; cited from earlier work
# [5] = tested on: liver function; conditions: patients who received the agent; cited from earlier work
# [6] = histidine 200 mg/kg i.p. alone, single dose after reperfusion, 24 h
# [7] = histidine 500 mg/kg i.p. alone after reperfusion, 24 h
# [8] = histidine 1000 mg/kg i.p. alone after reperfusion, 24 h
# [9] = Example 2, histidine 1000 mg/kg i.p. alone after reperfusion, 24 h
smiles,measurement,setting,value
"N[C@@H](Cc1c[nH]cn1)C(=O)O [Histidine, histidine]","size of cerebral infarction, Striatum","[1]; histidine 200 mg/kg i.p. alone, single dose after reperfusion (2 h MCA occlusion), 24 h after recovery of blood flow",35.3 ± 21.6 mm^3
same,"size of cerebral infarction, Cerebral cortex",[1]; [6],106.3 ± 63.0 mm^3
same,"size of cerebral infarction, Total",[1]; [6],141.6 ± 83.1 mm^3
same,"size of cerebral infarction, Cerebral cortex",[1]; [7],86.0 ± 49.9 mm^3
same,"size of cerebral infarction, Striatum",[1]; [7],30.5 ± 23.3 mm^3
same,"size of cerebral infarction, Total",[1]; [7],116.5 ± 69.7 mm^3
same,"size of cerebral infarction, Cerebral cortex",[1]; [8],114.2 ± 33.9 mm^3
same,"size of cerebral infarction, Striatum",[1]; [8],47.8 ± 16.3 mm^3
same,"size of cerebral infarction, Total",[1]; [8],162.0 ± 45.8 mm^3
same,suppressive effects on cerebral infarction,"[1]; histidine alone in a single dose after ischemia (200, 500, 1000 mg/kg)",not found
same,neuronal death 7 days after ischemia caused by apoptosis,"[2]; histidine 4 times: shortly, 6, 24 and 48 hours after 15 minutes of transient ischemia, rats",depressed
same,suppressive effects on cerebral infarction,"[3]; 1000 mg/kg of histidine in a single dose after ischemia, without metoprine",not found
same,"size of cerebral infarction, Cerebral cortex",[3]; [9],87.8 ± 42.5 mm^3
same,"size of cerebral infarction, Striatum",[3]; [9],57.2 ± 20.2 mm^3
same,"size of cerebral infarction, Total",[3]; [9],145.0 ± 59.2 mm^3
same,programmed death of neurons after transient ischemia,[4],depressed
CC1=NN(c2ccccc2)C(=O)C1 [edaravone],patients with abnormal values in laboratory tests on the liver function,[5],21.4%
COc1ccc(CN(CCN(C)C)c2ccccn2)cc1 [mepyramine],alleviation of nerve cell death by histidine in presence of histamine receptor blocker,"[2]; co-administered with histidine, ranitidine used concomitantly with mepyramine",slightly suppressed
